Test results as given in patent publication US20230365647A1 (priority 2020, published 2023).
Where two headings read alike, the source gives them in different places. Where no end group is shown, it is not given here.

Assays:
[1] = molecular target: T1, LLO (Listeria monocytogenes serotype 4a, UniProt B8DGM3); assay type: cell-based
[2] = tested on: human THP-1 derived macrophages; assay type: cell-based
[3] = molecular target: T2, PLY (Streptococcus pneumoniae serotype 4, UniProt P0C2J9); conditions: for inhibition of PLY-induced hemolysis: human
[4] = molecular target: T2, PLY; assay type: cell-based
[5] = molecular target: T1, LLO; conditions: for inhibition of LLO-induced hemolysis: human
[6] = molecular target: T2, PLY; assay type: binding
[7] = molecular target: T1, LLO; assay type: binding
[8] = tested on: S. pneumoniae T4R; assay type: cell-based
[9] = molecular target: T2, PLY; assay type: cell-based; remark: listed apart in the source
[10] = molecular target: T2, PLY; assay type: cell-based; remark: listed apart in the source
[11] = tested on: wild-type pneumococci T4 (TIGR4); assay type: cell-based
[12] = molecular target: T2, PLY; assay type: cell-based; remark: listed apart in the source
[13] = tested on: S. pneumoniae T4; set-up: species or system zebrafish (Danio renio); conditions: in vivo
[14] = tested on: pneumococci of type 4 or type 2; assay type: cell-based, Streptococcus pneumoniae
[15] = tested on: pneumococci, type 2 (D39) or type 4 (T4); assay type: cell-based, Streptococcus pneumoniae
[16] = tested on: S. pneumoniae T4; assay type: cell-based, Streptococcus pneumoniae
[17] = tested on: pneumococcal strain T4 (TIGR4 of serotype 4); assay type: binding
[18] = mouse, in vivo

Sequence: YENWAYGEPNNYQ [P3, YENWAYGEPNNYQ]
- cell death of macrophages induced by LLO (LDH release) ([1]; 18 h): significantly reduced cell death
- release of IL-8 [2]: significantly reduced
- release of IL-12 [2]: significantly reduced
- release of TNF-α [2]: significantly reduced
- PLY-induced hemolysis, increasing concentrations of the peptides [3]: dose-dependently inhibited
- inhibition of PLY-induced hemolysis [3]: up to 50%
- cell death of macrophages induced by PLY (LDH release) ([4]; 18 h): significantly reduced cell death
- inhibition of LLO-induced hemolysis [5]: ~35%
- binding to PLY (ELISA) [6]: bind dose-dependently
- binding to LLO (ELISA) [7]: bound dose-dependently

Sequence: LVGNIEQNEHSVI [CP2]
- cell death of macrophages induced by LLO (LDH release) [1]: no significant effect
- co-localization of intracellular T4R with autophagy marker LC3B [8]: did not promote co-localization
- PLY-induced hemolysis, residual red blood cell pellet [3]: Complete hemolysis
- LDH release into the supernatant of lung tissue model [9]: did not show any significant reduction
- release of IL-8 in lung tissue model [10]: not
- release of TNF-α in lung tissue model [10]: not
- cell death of macrophages induced by PLY (LDH release) [4]: no significant effect
- number of invading bacteria in lung epithelial model (CFU) [11]: not
- protection of THP-1 macrophages from PLY cytolysis (live/dead stain) [12]: not
- LLO-induced hemolysis, residual red blood cell pellet [5]: Complete hemolysis
- survival of infected zebrafish embryos [13]: did not show any significant effect
- intracellular bacteria in DCs (fluorescence microscopy) [14]: not
- number of intracellular bacteria in DCs (CFU) [15]: did not show any significant difference
- hemolytic activity of pneumococcal strain T4 [16]: no effect
- binding to PLY (ELISA) [6]: only background levels of binding
- binding of FITC-labelled peptide to PLY-producing strain T4 [17]: did not show any binding

Sequence: FTWSDGSPVSYEN [P2, FTWSDGSPVSYEN]
- inhibition of PLY-induced hemolysis [3]: up to 50%
- inhibition of LLO-induced hemolysis [5]: ~35%
- clinical symptoms [18]: did not develop any clinical symptoms
- toxicity by lung histology analysis [18]: not toxic

Sequence: DCTSAGRSDGWLW [CP1]
- PLY-induced hemolysis, residual red blood cell pellet [3]: Complete hemolysis
- LLO-induced hemolysis, residual red blood cell pellet [5]: Complete hemolysis
- binding to PLY (ELISA) [6]: only background levels of binding
